Drawing on ChEMBL document CHEMBL1128830, “Synthesis and antibacterial activity of FR21818, a new, potent 1-methylcarbapenem” (1995), this text covers MIC, Recovery and Stability for three compounds.

Assay [1] deals with Staphylococcus aureus. Kind of assay: Minimum inhibitory concentration required for antibacterial activity against methicillin-resistant Staphylococcus aureus 3004. It counts as functional.
For assay [2], the system named is Proteus vulgaris. Kind of assay: Minimum inhibitory concentration required for antibacterial activity against Proteus vulgaris IAM 1025. It counts as functional.
Assay [3] has as its system Mus musculus. Nature of the assay: […] percent urinary recovery in mice after subcutaneous administration at a dose of 20 mg/Kg. It counts as functional, organism-based. The note with it: Urine.
Assay [4] deals with Escherichia coli. Nature of the assay: Minimum inhibitory concentration required for antibacterial activity against Escherichia coli NIHJ JC-2. It counts as functional.
Assay [5] has as its system Pseudomonas aeruginosa. Kind of assay: Minimum inhibitory concentration required for antibacterial activity against Pseudomonas aeruginosa 26. The format is functional.
For assay [6], the system named is Staphylococcus aureus. Kind of assay: Minimum inhibitory concentration required for antibacterial activity against Staphylococcus aureus 209P JC-1. The format is functional.
In assay [7] the target is T1, Dipeptidase 1 (Homo sapiens) (UniProt P16444).
T1 sequence (whole entry): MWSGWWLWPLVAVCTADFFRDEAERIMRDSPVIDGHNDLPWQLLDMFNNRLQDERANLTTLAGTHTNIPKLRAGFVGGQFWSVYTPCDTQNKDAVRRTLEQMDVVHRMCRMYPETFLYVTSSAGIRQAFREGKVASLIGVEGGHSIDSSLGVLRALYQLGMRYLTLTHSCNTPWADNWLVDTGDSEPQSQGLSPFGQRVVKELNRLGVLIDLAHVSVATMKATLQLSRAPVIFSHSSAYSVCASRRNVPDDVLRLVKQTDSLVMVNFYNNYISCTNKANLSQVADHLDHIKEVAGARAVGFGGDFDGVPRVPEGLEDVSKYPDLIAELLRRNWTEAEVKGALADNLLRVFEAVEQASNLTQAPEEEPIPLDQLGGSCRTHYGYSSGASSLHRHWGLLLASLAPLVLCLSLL
Kind of assay: In vitro renal dehydropeptidase I (DHP-I) stability relative to meropenem.

Molecules are shown by their SMILES. Values after ≈ are worked out from the molar mass of the structure shown. Bounds are passed on as bounds.

`C[C@@H](O)[C@H]1C(=O)N2C(C(=O)[O-])=C(SC3Cn4cnc[n+]4C3)[C@H](C)[C@H]12` (stereo partly specified) [BIAPENEM]: the MIC was 25 µg/mL (≈ 71.3 µM) in assay [1]; 3.13 µg/mL (≈ 8.93 µM) in assay [2]; 0.39 µg/mL (≈ 1.11 µM) in assay [4]; 0.2 µg/mL (≈ 0.571 µM) in assay [5]; 0.1 µg/mL (≈ 0.285 µM) in assay [6]. This compound also gave a Recovery in assay [3] of 70.7%. In addition, the Stability in assay [7] turned out to be 15.4%.

As to `C[C@@H](O)[C@H]1C(=O)N2C(C(=O)O)=C(S[C@@H]3CN[C@H](C(=O)N(C)C)C3)[C@H](C)[C@H]12` [MEROPENEM], the MIC is 25 µg/mL (≈ 65.2 µM) in assay [1]; 0.1 µg/mL (≈ 0.261 µM) in assay [2]; under 0.025 µg/mL in assay [4]; 0.2 µg/mL (≈ 0.522 µM) in assay [5]; 0.1 µg/mL (≈ 0.261 µM) in assay [6]. The compound also returned a Recovery in assay [3] of 25%. Besides, the Stability in assay [7] was 100%.

Turning to `C[C@@H](O)[C@H]1C(=O)N2C(C(=O)O)=C(S[C@@H]3CN[C@H](Cc4cc[n+](CCO)n4C)C3)[C@H](C)[C@H]12.[Cl-]`, the MIC in assay [1] was 6.25 µg/mL; in assay [2], 1.56 µg/mL; in assay [4], 0.2 µg/mL; in assay [5] it was 0.2 µg/mL; in assay [6] it was 0.05 µg/mL. The same compound yielded a Recovery in assay [3] of 68.9%. In assay [7], this compound yielded a Stability of 26%.
